Patent publication US8673914B2, “Use of phosphodiesterase inhibitors for treating multidrug resistance” (St. John's University, priority 2011, dated 2014)
Marks after values point to notes of the source that are not given here.

How the values were obtained:
[1] = test system: HEK/MRP7; test: MTT cytotoxicity assay (Example 4); assay type: cell-based; conditions: alone;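 further: drug IC50 in HEK/MRP7 divided by IC50 in parental HEK293-pcDNA3.1 cells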
Description: (§1) The MRP7 cDNA was generously provided by Dr. Gary Kruh (University of Illinois, Chicago, Ill.) and inserted into the pcDNA3.1 expression vector. […] Individual colonies were selected in medium containing G418 (1 mg/ml) and cultured for further analysis.
(§2) MTT colorimetric assay was performed to analyze the drug sensitivity as previously described (Shi et al. (2007) Cancer Res. 67:11012-20). HEK293-pcDNA3.1 and HEK/MRP7 cells were seeded into 96-well plates in triplicate at 6000 cells/well.
(§3) After drug incubation of 68 h, 20 μl MTT solution (4 mg/ml) was added into each well. […] The Bliss method was used to calculate the IC50 values according to survival curves.

[2] = test system: HEK 293-pcDNA-3.1; test: MTT cytotoxicity assay (Example 4); assay type: cell-based
Description: as §1, §2, §3

[3] = test system: KB-C2 cells (ABCB1); test: [^3H]-paclitaxel accumulation (Example 1); assay type: cell-based, human; conditions: no reversal agent
Description: The intracellular accumulation of [^3H]-paclitaxel was measured as follows. […] Intracellular paclitaxel accumulation was measured by incubating cells with 0.1 μM [^3H]-paclitaxel for 2 h in the presence or absence of the reversal agents at 37° C. The cells were washed three times with ice-cold PBS, then suspended in fresh medium with or without reversal agents at 37° C. Aliquots of the extracellular medium (40 μl) were collected at various time points (0, 60, 120 min), and finally the cells were collected and lysed in 10 mM lysis buffer (pH 7.4, containing 1% Triton X-100 and 0.2% SDS). Each sample was placed in scintillation fluid and the radioactivity was measured in a Packard TRI-CARB1 1900CA liquid scintillation analyzer from Packard Instrument Company, Inc. (Downers Grove, Ill.).

[4] = test system: HEK/MRP7 cells; test: [^3H]-paclitaxel efflux (Example 4); assay type: cell-based; conditions: absence of PDE5 inhibitors
Description: (§4) The effect of PDE5 inhibitors on the intracellular accumulation of paclitaxel in HEK293-pcDNA3.1 and HEK/MRP7 cells was measured using [^3H]-paclitaxel. […] For efflux studies, the cells were treated the same as in the drug accumulation study, and then washed three times with ice-cold PBS, and suspended in fresh medium with or without PDE5 inhibitors. Aliquots were evenly collected at various time points (0, 30, 60, and 120 min). Samples from both accumulation and efflux experiments were washed with ice-cold PBS three times and placed in scintillation fluid, and the radioactivity was measured in a Packard TRI-CARB® 1900CA liquid scintillation analyzer from Packard Instrument Company, Inc. (Downers Grove, Ill.).

[5] = test system: HEK/ABCB1 (ABCB1); test: MTT cytotoxicity/reversal assay (Example 1); conditions: HEK/ABCB1; alone
Description: The KB-C2 and KB-3-1 were kindly provided by Dr. Akiyama (Kagoshima University, Japan). […] Similarly, the HEK/MRP1 (ABCC1) and HEK/ABCB1 cells were generated by transfecting the HEK293 cells with either the MRP1 expression vector or the ABCB1 expression vector. All of the cell lines were grown in Dulbecco's modified Eagle's medium (DMEM) supplemented with 10% bovine serum, 100 units/ml penicillin, and […] streptomycin in a humidified incubator containing 5% CO2 at 37° C.
(§5) The MTT assay was used to assess cytotoxicity. The cultured cells were harvested with trypsin and resuspended in a final concentration of 4×10^3 cells/well for KB-3-1; 7.5×10^3 cells/well for KB-C2; and 8×10^3 for all of the other cell lines used in this study. Cells were seeded evenly in 96-well multiplates. […] After 68 h of incubation, 20 μl of the MTT solution (4 mg/ml) was added to each well, and the plate was further incubated for 4 h at 37° C., allowing viable cells to convert the yellow-colored MTT into dark-blue formazan crystals. Subsequently, the medium was discarded, and 100 μl of DMSO was added into each well to dissolve the formazan crystals, generating purple color. The absorbance was determined at 570 nm by an OPSYS Microplate Reader from DYNEX Technologies, Inc. (Chantilly, Va.). […] The degree of the reversal of multidrug resistance (MDR) was calculated by dividing the IC50 of an anticancer drug, e.g., an antineoplastic or chemotherapeutic drug (agent, compound), in a cell type in the absence of a reversal agent by the IC50 of the anticancer drug in the same cell type in the presence of the reversal agent. The IC50 values were calculated from survival curves using the Bliss method.

[6] = test system: HEK293/pcDNA3.1; test: MTT cytotoxicity/reversal assay (Example 1); assay type: cell-based; conditions: HEK293/pcDNA3.1; alone
Description: (§6) The KB-C2 and KB-3-1 were kindly provided by Dr. Akiyama (Kagoshima University, Japan). HEK293-pcDNA3.1 and wild-type HEK/ABCG2 transfected cells were established by selection with G418 after transfecting HEK293 with either (1) empty pcDNA3.1 vector or (2) pcDNA3.1 vector containing full length of ABCG2 coding arginine (R) at amino acid position 482, and were then cultured in a medium with 2 mg/ml of G418 (ABCG2-482-R2 cells). Similarly, the HEK/MRP1 (ABCC1) and HEK/ABCB1 cells were generated by transfecting the HEK293 cells with either the MRP1 expression vector or the ABCB1 expression vector. All of the cell lines were grown in Dulbecco's modified Eagle's medium (DMEM) supplemented with 10% bovine serum, 100 units/ml penicillin, and […] streptomycin in a humidified incubator containing 5% CO2 at 37° C.
as §5

[7] = test system: KB-3-1; test: MTT cytotoxicity/reversal assay (Example 1); assay type: cell-based, human; conditions: alone
Description: as §6, §5

[8] = test system: KB-C2 (ABCB1); test: MTT cytotoxicity/reversal assay (Example 1); assay type: cell-based, human; conditions: alone
Description: as §6, §5

[9] = test system: HEK/MRP7 cells; test: [^3H]-paclitaxel accumulation (Example 4); assay type: cell-based; conditions: no inhibitor
Description: as §4

CC(=O)O[C@H]1C(=O)[C@@]2(C)[C@H]([C@H](OC(=O)c3ccccc3)[C@]3(O)C[C@H](OC(=O)[C@H](O)[C@@H](NC(=O)c4ccccc4)c4ccccc4)C(C)=C1C3(C)C)[C@]1(OC(C)=O)CO[C@@H]1C[C@@H]2O [Paclitaxel, paclitaxel]
fold-resistance, paclitaxel [1]: (9.21) | fold-resistance, paclitaxel ([2]; HEK 293-pcDNA-3.1, alone): (1.0)^b | IC50 ([2]; read-out: IC50 of paclitaxel): 0.0116 ± 0.00133 µM | intracellular concentration of paclitaxel relative to parental KB-3-1 cells [3]: approximately 55% | accumulated [^3H]-paclitaxel remaining in cells ([4]; 30 min): 62.43% | accumulated [^3H]-paclitaxel remaining in cells ([4]; 60 min): 39.47% | accumulated [^3H]-paclitaxel remaining in cells ([4]; 120 min): 23.44% | fold reversal, paclitaxel [5]: (1.00) | fold reversal, paclitaxel [6]: (1.00) | fold reversal, paclitaxel [7]: (1.00) | fold reversal, paclitaxel [8]: (1.00) | intracellular concentration of [^3H]-paclitaxel relative to parental HEK293-pcDNA3.1 [9]: 28.5%
